Broadly, the EC50 is the concentration that produces a half-maximal response. The half-life is the time in which the quantity being followed falls by half.

For one series, the system named is lymphocyte cells. Particulars: cited from earlier work.
The subject of series [1] is Reduced glutathione in salivary gland cell clusters (SGm). Put plainly: Glutathione assay in salivary gland tissue chip, 4 days post-radiation (15 Gy); also first screen of Selleck library at 100 μM. For Glutathione (radioprotection): key: +: radioprotection; ~: partial radioprotection; —: no radioprotection. Format: cell-based, mouse. Particulars: for Estimated EC50, Glutathione: nonlinear fit in Prism of dose response curves; for prevention of radiation-induced reduction of glutathione levels: 4 days post-radiation. Put shortly:
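Mouse submandibular gland cell clusters (20–100 μm) in PEG hydrogel on microbubble chips, cultured 4 days to form SGm, then dosed 30 min before and during 15 Gy irradiation and washed out 30 min after. Glutathione measured 4 days post-radiation; library compounds screened at 100 μM, hits matching 0 Gy levels.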

For a further series, the system named is COX-1. Particulars: role: inhibitor; cited from earlier work.
For series [2] the following is noted: in vivo; cited from earlier work.
For series [3] the following is noted: in vivo; cited from earlier work. The source holds these as a separate data set.
Another series relates to COX-2. Particulars: role: inhibitor; cited from earlier work.

Regarding `CCn1cc(C(=O)O)c(=O)c2cc(F)c(N3CCNCC3)nc21` [Enoxacin (Penetrex)], the EC50 in the series on lymphocyte cells (radioprotection, read-out: EC50, viability of lymphocyte cells) is 13 µM. In the series with lymphocyte cells (viability of lymphocytes as primary readout), the “radioprotection of lymphocytes” value was “robust radioprotectors”. Besides, in series [1] (dose response, 15 Gy), the “radioprotection in dose response, glutathione assay” value was “protection only at higher concentrations”. Also, in series [1] (15 Gy), the “Estimated EC50, Glutathione” value was 2.4 µM.

Turning to `CCCCC1C(=O)N(c2ccccc2)N(c2ccccc2)C1=O` [Phenylbutazone], the “concentration range of radioprotection, glutathione assay” value in series [1] (dose response, 15 Gy) lay in the range of 0.1 to 100 µM. For the same compound, the “Estimated EC50, Glutathione” value in series [1] (15 Gy) is 0.08 µM. Also, in the series with COX-1, the “COX-1 inhibition” value was “inhibits”. Also, in series [2], the bioavailability result is “up to 90%” and the half-life was 50 to 105 h. The “adverse effects” value in series [3] is “rare but severe blood disorders, including anemia and leukopenia”. The “COX-2 inhibition” value in the series with COX-2 was “inhibits”.

For Doripenem hydrate, in series [1] (dose response, 15 Gy), the “radioprotection in dose response, glutathione assay” value is listed as “protection only at higher concentrations”. For the same compound, in series [1] (15 Gy), the “Estimated EC50, Glutathione” value is 8.6 µM.

Take `NCCCNCCS` [WR-1065]: the “prevention of radiation-induced reduction of glutathione levels” value in series [1] (0.1 mM, 15 Gy) is “ineffective”; in series [1] (0.4 mM, 15 Gy), “ineffective”; in series [1] (1 mM, 15 Gy), “significant protection”; in series [1] (4 mM, 15 Gy) it was “significant protection”. The “Glutathione (radioprotection)” value in series [1] (1 mM) and in series [1] (4 mM) was “+” in each case.

Source of the values: patent US20260345555A1, “Compositions and Methods for Protecting Salivary Glands from Off-Target Radiation Damage” (University of Rochester, priority 2022, published 2026).
